Measured values reported in patent US5100881A (priority 1989, dated 1992).

What was measured:
[1] = system: L1210 cells; test: cells; format: cell-based; details: Mus musculus, L1210, 48 h, read-out: IC50 (concentration which 50% inhibits the proliferation of the control cells)
[2] = system: P 388 leukemia; parameters: species or system mice; details: mouse, in vivo

`CC[C@]1(O)C[C@@H]2CN(CCc3c([nH]c4ccccc34)[C@@](C(=O)OC)(c3cc4c(cc3OC)N(C)[C@H]3[C@@](O)(C(=O)OC)[C@H](OC(C)=O)[C@]5(CC)C=CCN6CC[C@]43[C@@H]65)C2)C1` [Vinblastine, vinblastine] was tested, and the IC50 [1] was 2.3 ± 0.5 nM, the “SURVIVORS 30 days” value [2] was 1/6 and the “SURVIVORS 60 days” value [2] was 1/6. The “T/C % (mean survival time test group over untreated control group)” value [2] was 245%.

With `CC[C@]1(O)C[C@H]2CN(CCc3c([nH]c4ccccc34)[C@@](C(=O)OC)(c3cc4c(cc3OC)N(C=O)[C@H]3[C@@](O)(C(=O)OC)[C@H](OC(C)=O)[C@]5(CC)C=CCN6CC[C@]43[C@@H]65)C2)C1` [Vincristine, vincristine] the IC50 [1] was 4.2 ± 0.7 nM, the “SURVIVORS 30 days” value [2] was 0/6 and the “SURVIVORS 60 days” value [2] was 0/6. The “T/C % (mean survival time test group over untreated control group)” value [2] was 192%.
